Counter-ions that a name gives are not always drawn.

This test concerns c-Myc. The test can be described thus: c-Myc immunofluorescence assay. The format is cell-based, human. The note with it: A549 cells, 24 hours treatment, anti-c-Myc immunofluorescence. The essentials:
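A549 cells grown 48 h, exposed 24 h to rising compound concentrations, then fixed, permeabilised and stained for c-Myc plus DAPI. Nuclear-segmented c-Myc fluorescence quantified by high-content imaging at 20×; EC50 from logistic dose–response fits.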
On to `CNC(=O)c1ccc(-c2cn3c(n2)sc2cc(NC(=O)CCCN4CCCCC4)ccc23)cc1` [compound 312, N-methyl-4-(7-(4-(piperidin-1-yl)butanamido)benzo[d]imidazo[2,1-b]thiazol-2-yl)benzamide], for which the “Myc Efficacy (−LogEC50)” value is “++ (++ ≥5 and <6)”.
The value for `CCN(CC)CCCNC(=O)c1ccc2c(c1)sc1nc(-c3cccc(C)c3F)cn12` [compound 143, N-(3-(diethylamino)propyl)-2-(2-fluoro-3-methylphenyl)benzo[d] imidazo[2,1-b]thiazole-7-carboxamide] was “++ (++ ≥5 and <6)”; that for “N-(2- (dimethylamino)propyl)-2- (4- (methylcarbamoyl)phenyl) benzo[d]imidazo[2,1-b] thiazole-7-carboxamide [compound 239]” was “+ (+ >3 and <5)”; that for `O=C(NCCCN1CCCCC1)c1ccc2c(c1)sc1nc(-c3ccc([C@H]4CCCN4)cc3F)nn12` [compound 421, (R)-2-(2-fluoro-4-(pyrrolidin-2-yl)phenyl)-N-(3-(piperidin-1-yl)propyl)benzo[4,5]thiazolo [3,2-b][1,2,4]triazole-6-carboxamide] was “++ (++ ≥5 and <6)”.
Regarding `CCc1nccn1CCNC(=O)c1ccc2c(c1)sc1nc(-c3ccc(C(=O)NC)cc3)cn12` [compound 243, N-(2-(2-ethyl-1H-imidazol-1-yl)ethyl)-2-(4-(methylcarbamoyl)phenyl) benzo[d]imidazo[2,1-b] thiazole-7-carboxamide], the “Myc Efficacy (−LogEC50)” value is “+ (+ >3 and <5)”.
Regarding `CNC(=O)c1ccc(-c2cn3c(n2)sc2cc(C(=O)NC4(CN)CCC4)ccc23)cc1` [compound 199, N-(1-(aminomethyl)cyclobutyl)-2-(4-(methylcarbamoyl)phenyl) benzo[d]imidazo[2,1-b]thiazole-7-carboxamide], the “Myc Efficacy (−LogEC50)” value was “+ (+ >3 and <5)”.
In the case of `Cc1cccc(-c2cn3c(n2)sc2cc(C(=O)NCCCN4CCCC4=O)ccc23)c1` [compound 150, N-(3-(2-oxopyrrolidin-1-yl)propyl)-2-(m-tolyl)benzo[d]imidazo[2,1-b]thiazole-7-carboxamide], the “Myc Efficacy (−LogEC50)” value is “+ (+ >3 and <5)”.
The value for `CCN(CC)CCCNC(=O)c1ccc2c(c1)sc1nc(-c3ccc(-c4ncc[nH]4)cc3)cn12` [compound 268, 2-(4-(1H-imidazol-2-yl)phenyl)-N-(3-(diethylamino)propyl) benzo[d]imidazo[2,1-b] thiazole-7-carboxamide] was “+ (+ >3 and <5)”; that for `CNC(=O)c1ccc(-c2cn3c(n2)sc2cc(C(=O)NC(C)CCO)ccc23)cc1` (stereo not shown) [compound 187, N-(4-hydroxybutan-2-yl)-2-(4-(methylcarbamoyl)phenyl) benzo[d]imidazo[2,1-b]thiazole-7-carboxamide] was “− (− ≤3)”.
For `O=C(NCCCN1CCC(F)CC1)c1ccc2c(c1)sc1nc(-c3ccc(C4CC(O)CN4)cc3F)cn12` (stereo not shown) [Compound 493, 2-(2-fluoro-4-(4-hydroxypyrrolidin-2-yl)phenyl)-N-(3-(4-fluoropiperidin-1-yl)propyl)benzo[d]imidazo[2,1-b]thiazole-7-carboxamide] the value was “+++ (+++ ≥6)”.
The value for `O=C(NC1CCOCC1)c1ccc2c(c1)sc1nc(-c3ccc(C4CCNCC4)cc3F)cn12` [Compound 529, 2-(2-fluoro-4-(piperidin-4-yl)phenyl)-N-(tetrahydro-2H-pyran-4-yl)benzo[d]imidazo[2,1-b]thiazole-7-carboxamide] was “+++ (+++ ≥6)”.
Regarding `CCN(CC)CCCNC(=O)c1ccc2c(c1)sc1nc(-c3ccc(Cl)cc3)cn12` [compound 111, 2-(4-chlorophenyl)-N-(3-(diethylamino)propyl)benzo [d]imidazo[2,1-b]thiazole-7-carboxamide], the “Myc Efficacy (−LogEC50)” value is “++ (++ ≥5 and <6)”.
With `O=C(NCCCN1CCC(F)CC1)c1ccc2c(c1)sc1nc(-c3ccc([C@H]4CCCN4)cc3F)cn12` [compound 419, (R)-2-(2-fluoro-4-(pyrrolidin-2-yl)phenyl)-N-(3-(4-fluoropiperidin-1-yl)propyl)benzo[d]imidazo [2,1-b]thiazole-7-carboxamide], the “Myc Efficacy (−LogEC50)” value was “+++ (+++ ≥6)”.
For `NCc1ccc(-c2cn3c(n2)sc2cc(C(=O)NCCCN4CCCCC4)ccc23)c(C(F)F)c1` [compound 371, 2-(4-(aminomethyl)-2-(difluoromethyl)phenyl)-N-(3-(piperidin-1-yl)propyl)benzo[d]imidazo [2,1-b]thiazole-7-carboxamide] the value was “++ (++ ≥5 and <6)”.
The value for `CNC(=O)c1ccc(-c2cn3c(n2)sc2cc(C(=O)NCCCN4CCCC4)ccc23)cc1` [compound 310, 2-(4-(methylcarbamoyl)phenyl)-N-(3-(pyrrolidin-1-yl)propyl)benzo[d]imidazo [2,1-b]thiazole-7-carboxamide] was “+ (+ >3 and <5)”.
The value for `CCN1CCC(CNC(=O)c2ccc3c(c2)sc2nc(-c4ccc(C(=O)NC)cc4)cn23)CC1` [compound 215, N-((1-ethylpiperidin-4-yl)methyl)-2-(4-(methylcarbamoyl)phenyl) benzo[d]imidazo[2,1-b]thiazole-7-carboxamide] was “− (− ≤3)”; that for `CNC(=O)c1ccc(-c2cn3c(n2)sc2cc(C(=O)NCCCN4CCCCC4)ncc23)cc1` [compound 406, 2-(4-(methylcarbamoyl)phenyl)-N-(3-(piperidin-1-yl)propyl)imidazo[2′,1′:2,3] thiazolo[4,5-c]pyridine-7-carboxamide] was “++ (++ ≥5 and <6)”; that for `NC1(c2ccc(-c3nc4sc5cc(C(=O)NCCCN6CCCCC6)ccc5n4n3)cc2)CC1` [compound 398, 2-(4-(1-aminocyclopropyl)phenyl)-N-(3-(piperidin-1-yl)propyl)benzo[4,5]thiazolo [3,2-b][1,2,4]triazole-6-carboxamide] was “++ (++ ≥5 and <6)”.
For `O=C(NCCCN1CCC(F)CC1)c1ccc2c(c1)sc1nc(-c3ccc(C4(O)COC4)cc3F)cn12` [compound 425], the “Myc Efficacy (−LogEC50)” value was “+++ (+++ ≥6)”.
For `CCN(CC)CCCC(=O)Nc1ccc2c(c1)sc1nc(-c3ccc(C(=O)NC)cc3F)cn12` [compound 365, 4-(7-(4-(diethylamino)butanamido)benzo[d]imidazo[2,1-b]thiazol-2-yl)-3-fluoro-N-methylbenzamide], the “Myc Efficacy (−LogEC50)” value was “++ (++ ≥5 and <6)”.
Turning to `CNC(=O)c1ccc(-c2cn3c(n2)sc2cc(C(=O)NCCN4CC5(COC5)C4)ccc23)cc1` [compound 183, N-(2-(2-oxa-6-azaspiro[3.3]heptan-6-yl)ethyl)-2-(4-(methylcarbamoyl)phenyl) benzo[d]imidazo[2,1-b]thiazole-7-carboxamide], the “Myc Efficacy (−LogEC50)” value is “+ (+ >3 and <5)”.
The value for `CNC(=O)c1ccc(-c2nc3sc4cc(C(=O)NCCCN5CCC(F)CC5)ccc4n3n2)c(F)c1` [compound 389, 2-(2-fluoro-4-(methylcarbamoyl)phenyl)-N-(3-(4-fluoropiperidin-1-yl)propyl)benzo[4,5]thiazolo [3,2-b][1,2,4]triazole-6-carboxamide] was “++ (++ ≥5 and <6)”.
For `CNC(=O)c1ccc(-c2cn3c(n2)sc2cc(C(=O)NC4CC(N(C)C)C4)ccc23)cc1` (stereo not shown) [compound 269, N-(3-(dimethylamino)cyclobutyl)-2-(4-(methylcarbamoyl)phenyl) benzo[d]imidazo[2,1-b]thiazole-7-carboxamide] the value was “+ (+ >3 and <5)”; for `CCN(CC)CCCNC(=O)c1ccc2c(c1)sc1nc(-c3ccc(C(C)C)cc3)cn12` [compound 136, N-(3-(diethylamino)propyl)-2-(4-isopropylphenyl)benzo[d] imidazo[2,1-b]thiazole-7-carboxamide formate], “++ (++ ≥5 and <6)”; for `CCN(CC)CCCNC(=O)c1ccc2c(c1)sc1nc(-c3ccc(C(NC)C(F)(F)F)cc3)cn12` (stereo not shown) [compound 218, N-(3-(diethylamino)propyl)-2-(4-(2,2,2-trifluoro-1-(methylamino)ethyl)phenyl) benzo[d]imidazo[2,1-b]thiazole-7-carboxamide], “++ (++ ≥5 and <6)”.
As for `CCN(CC)CCCNC(=O)c1ccc2c(c1)sc1nc(-c3ccc(C#N)cc3)cn12` [compound 160, 2-(4-cyanophenyl)-N-(3-(diethylamino)propyl)benzo [d]imidazo[2,1-b]thiazole-7-carboxamide], the “Myc Efficacy (−LogEC50)” value was “+ (+ >3 and <5)”.
For `CCN(CC)CCCNC(=O)c1ccc2c(c1)sc1nc(-c3cccc(CN)c3)cn12` [compound 299, 2-(3-(aminomethyl)phenyl)-N-(3-(diethylamino)propyl) benzo[d]imidazo[2,1-b] thiazole-7-carboxamide], the “Myc Efficacy (−LogEC50)” value was “++ (++ ≥5 and <6)”.
The value for `CNC(=O)c1ccc(-c2cn3c(n2)sc2cc(C(=O)NCCCN4CCCC4CO)ccc23)cc1` (stereo not shown) [compound 271, N-(3-(2-(hydroxymethyl)pyrrolidin-1-yl)propyl)-2-(4-(methylcarbamoyl)phenyl) benzo[d]imidazo[2,1-b]thiazole-7-carboxamide] was “+ (+ >3 and <5)”.
In the case of `CNC(=O)c1ccc(-c2cn3c(n2)sc2cc(C(=O)NC4CCNCC4)ccc23)cc1` [compound 185, 2-(4-(methylcarbamoyl)phenyl)-N-(piperidin-4-yl)benzo[d]imidazo[2,1-b]thiazole-7-carboxamide], the “Myc Efficacy (−LogEC50)” value was “++ (++ ≥5 and <6)”.
For `CCN(CC)CCCNC(=O)c1ccc2c(c1)sc1nc(-c3ccc(C(=O)NC)cc3F)cn12` [compound 166, N-(3-(diethylamino)propyl)-2-(2-fluoro-4-(methylcarbamoyl)phenyl) benzo[d]imidazo[2,1-b]thiazole-7-carboxamide] the value was “+++ (+++ ≥6)”.
With `CNC(=O)c1ccc(-c2cn3c(n2)sc2cc(C(=O)N[C@@H](CO)CC(C)C)ccc23)cc1` [compound 192, (R)-N-(1-hydroxy-4-methylpentan-2-yl)-2-(4-(methylcarbamoyl)phenyl) benzo[d]imidazo[2,1-b]thiazole-7-carboxamide], the “Myc Efficacy (−LogEC50)” value is given as “− (− ≤3)”.

Values taken from patent US12404283B2, “c-MYC mRNA translation modulators and uses thereof in the treatment of cancer” (Anima Biotech Inc., priority 2022, dated 2025).
